The values below come from patent US10272081B2, “SHIP1 modulators and methods related thereto” (Aquinox Pharmaceuticals (Canada) Inc., priority 2013, dated 2019).

The test system of experiment [1] is Akt phosphorylation in Jurkat (SHIP1−) lymphocytes. Kind of experiment: Akt phosphorylation in lymphocytes, Jurkat (Western blot). In kind it is cell-based. Also noted: key: +: inhibits Akt phosphorylation at 10 μM; −: no effect on Akt phosphorylation at 10 μM. The note with it: 10 μM; IGF-1 stimulated Jurkat (PTEN−/SHIP1−) cells. As to the method: (§1) Jurkat (PTEN−/SHIP1−) or Molt-4 (PTEN−/SHIP1+) cells are starved in serum free RPMI for overnight. In a 15 mL conical tube, 2-3 million serum starved cells (1 million cells per mL) are treated with various concentrations of test compound (0.1, 1, or 10 μM final in 0.1% DMSO) for 30 min at 37° C. followed by stimulation with 100 ng/mL of IGF-1 for 1 hour at 37° C. After stimulation, cells are washed once with ice-cold DPBS and lysed with Lysis Buffer (20 mM Tris-HCl, pH 7.5, 140 mM NaCl, 1% NP-40, Complete Mini Protease Inhibitor Cocktail, 10 mM NaF, 1 mM Na3VO4, 1 mM β-glycerolphosphate) on ice for 30 min with vortexing every 10 min. Samples are then centrifuged at 13,000 rpm for 20 min, and supernatants are collected as total cell lysate samples. Protein concentration is determined using bicinchonic acid assay, and about 15 μg of total protein from each sample is loaded and separated on a 4-12% Tris-Glycine gel. After SDS-PAGE, proteins are transferred from the gel to a nitrocellulose membrane. The membrane is blocked in 5% BSA in PBS containing 0.1% Tween-20 (PBS-T) for 1 hour at room temperature before probing with primary antibodies for overnight at 4° C. The following antibodies are used: mouse anti-SHIP1 (1:500 dilution; Santa Cruz, Calif., USA), rabbit anti-phospho-Akt(Ser473) (1:1000 dilution; Cell Signaling Technologies, MA, USA), rabbit anti-Akt (1:1000; Cell Signaling Technologies, MA, USA), and rabbit anti-actin (1:2000; Cell Signaling Technologies, MA, USA). The membrane is then incubated with goat anti-rabbit or anti-mouse secondary antibodies (1:3000) for 1 hour at room temperature. Target proteins on the membrane are detected with ECL solution and exposed on a film.
In general terms: Immunoblotting shows a protein as a band on a membrane.

Experiment [2] deals with T1, His-hSHIP1 enzyme (Homo sapiens, UniProt Q92835).
T1 construct: His
T1 sequence (Q92835 1-1189): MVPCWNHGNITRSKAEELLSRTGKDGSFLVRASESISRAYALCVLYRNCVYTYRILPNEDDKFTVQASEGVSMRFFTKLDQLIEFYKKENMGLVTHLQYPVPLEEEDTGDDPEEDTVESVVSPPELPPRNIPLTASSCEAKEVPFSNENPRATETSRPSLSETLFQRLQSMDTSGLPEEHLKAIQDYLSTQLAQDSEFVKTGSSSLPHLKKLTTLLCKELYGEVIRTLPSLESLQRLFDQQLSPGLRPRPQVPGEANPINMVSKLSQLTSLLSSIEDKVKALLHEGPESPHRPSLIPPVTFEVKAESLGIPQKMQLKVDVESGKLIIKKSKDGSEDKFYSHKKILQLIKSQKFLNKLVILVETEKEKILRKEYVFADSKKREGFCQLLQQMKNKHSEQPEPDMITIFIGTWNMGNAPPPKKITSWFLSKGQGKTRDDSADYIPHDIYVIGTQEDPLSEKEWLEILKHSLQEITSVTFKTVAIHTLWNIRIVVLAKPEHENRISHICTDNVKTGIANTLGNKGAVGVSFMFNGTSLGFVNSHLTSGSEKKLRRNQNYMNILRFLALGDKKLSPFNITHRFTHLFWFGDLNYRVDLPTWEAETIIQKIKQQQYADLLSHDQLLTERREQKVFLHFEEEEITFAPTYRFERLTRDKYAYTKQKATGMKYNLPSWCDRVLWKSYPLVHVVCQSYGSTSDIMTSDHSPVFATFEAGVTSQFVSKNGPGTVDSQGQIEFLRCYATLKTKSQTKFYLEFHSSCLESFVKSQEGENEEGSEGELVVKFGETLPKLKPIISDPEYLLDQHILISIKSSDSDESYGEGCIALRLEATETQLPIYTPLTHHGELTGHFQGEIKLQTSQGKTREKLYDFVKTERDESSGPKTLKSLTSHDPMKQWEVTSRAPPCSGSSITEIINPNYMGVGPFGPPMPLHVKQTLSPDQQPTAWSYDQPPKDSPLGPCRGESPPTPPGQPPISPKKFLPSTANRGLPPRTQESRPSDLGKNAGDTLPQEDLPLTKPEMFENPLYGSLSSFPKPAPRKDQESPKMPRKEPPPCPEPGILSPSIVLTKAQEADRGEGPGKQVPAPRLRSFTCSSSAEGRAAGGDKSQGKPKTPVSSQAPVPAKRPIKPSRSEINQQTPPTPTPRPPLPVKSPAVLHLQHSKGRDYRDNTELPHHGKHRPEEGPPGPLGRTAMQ
Kind of experiment: His-hSHIP1 activity, approach 2 (ratio of initial velocities IP4 25/IP4 250). In kind it is biochemical. Further details: key: +++: higher than reference or reference - 15%; ++: reference - 16% to reference - 30%; +: reference - 31% or lower. The note with it: ratio of initial velocities IP4 25/IP4 250 versus reference SHIP1 activator; asterisk in Table 2. As to the method:
(§2) Test compounds are dissolved in 95% ethanol to form stock solutions. Before screening, the stock solutions are diluted with Phosphatase Assay Buffer (20 mM Tris-HCL, 10 mM MgCl2 pH 7.5, 0.02% Tween 20) to form working assay solutions that contain 10% ethanol. The assay is carried out on 96-well microtiter plates using a modified procedure of that reported by Ong et al., Blood 110, 1942-1949, 2007 and Yang et al., Org Lett 7, 1073-1076, 2005, both of which references are incorporated herein by reference in their entirety.
In the second approach, a master mix is prepared that contains […] (0.4-1.6 ng/μL final), 25 μL of the substrate, IP4 (25 or 250 μM final), and 50 μL of test compound in 3.3% ethanol ([…]). Control blanks are also prepared by replacing His-hSHIP1 enzyme, IP4, or test compounds with Phosphate Assay Buffer. […] Each reaction component is preincubated at 37° C. for 30 min before adding to a 96-well microtiter plate. The master mix is then incubated at 37° C. At time 0, 20, 25 and 30 min, 25 μL of the master mix is removed and transferred to a new 96-well microtiter plate, to which 100 μL of Biomol Green Reagent is added to stop the reaction. After incubating the mixture for 20 min at room temperature for color development, the absorbance is read with SpectraMax Plus 96-well plate reader at a wavelength of 650 nm. Phosphate released is plotted against time to calculate the initial velocities (i.e., slope of the graph) at each IP4 concentration. The initial velocities are baseline corrected and the ratio of initial velocities (IP425/IP4250) is calculated and used to rate the test compounds.

Experiment [3] has as its system Akt phosphorylation in Molt-4 (SHIP1+) lymphocytes. Briefly: Akt phosphorylation in lymphocytes, Molt-4 (Western blot). The experiment is classed as cell-based. Further details: key: +: inhibits Akt phosphorylation at 10 μM; −: no effect on Akt phosphorylation at 10 μM. To be noted: 10 μM; IGF-1 stimulated Molt-4 (PTEN−/SHIP1+) cells. As to the method:
as §1

In experiment [4] the target is T1, His-hSHIP1 enzyme. Briefly: His-hSHIP1 activity, approach 1 (phosphate release from IP4, Biomol Green). The experiment is classed as biochemical. To be noted: activation of His-hSHIP1; IP4 50 μM; test compound 0-300 μM; no asterisk in Table 2. Here is the method: as §2
Data were generated by one of two variant methods. Test compounds are screened by one of two approaches described as follows. In the first approach, each reaction contains 5 μL of His-hSHIP1 enzyme (5-20 ng), 10 μL of the substrate, 1,3,4,5-inositol tetrakisphosphate (IP4; 50 μM final), 5 μL of Phosphatase Assay Buffer, and 5 µL of test compound at various concentrations in 10% ethanol (0-300 μM final). Control blanks are also prepared by replacing His-hSHIP1 enzyme, IP4, or test compounds with Phosphatase Assay Buffer. After adding the reaction components in a 96-well microtiter plate on ice, the reaction is mixed by briefly shaking the plate vigorously. The reaction is then incubated at 37° C. for 15 min with gentle shaking followed by addition of 100 μL of Biomol Green Reagent (BIOMOL, Pa., USA) to terminate the reaction. The free phosphate released from IP4 by His-hSHIP1 binds to the Biomol Green Reagent, which turns the dye to green color. After incubating the mixture for 20 min at room temperature for color development, the absorbance is read with SpectraMax Plus 96-well plate reader (Molecular Devices, Sunnyvale, Calif., USA) at a wavelength of 650 nm.

For experiment [5], the system named is passive cutaneous anaphylaxis in mice. Briefly: Passive cutaneous anaphylaxis in mice. In kind it is in vivo. The note with it: oral gavage, doses less than 20 mg/kg. As to the method: The activity of representative compounds on passive cutaneous anaphylaxis in mice was evaluated according to the procedures disclosed by Ovary, J Immunol 81, 355-357, 1958 and Halpern et al., Br J Pharmacol Chemother 20, 389-398, 1963, both of which are incorporated herein by reference in their entirety.
To induce a passive cutaneous anaphylaxis, mice undergo intradermal ear inoculation on their right ear with 25 ng in 20 μL of anti-DNP-IgE. The left ears are untreated and serve as negative controls. Twenty-four hours after inoculation, all mice are administered test compound by oral gavage (PO). Sixty minutes after oral administration, mice are given a tail vein injection of 2% Evan's Blue (0.2 μm filtered, in 200 μL saline) followed by a second tail IV injection of 100 μg DNP-HSA (in 200 μL). Sixty minutes following the DNP-HAS injection, mice are euthanized using CO2 inhalation. Subsequently, ear biopsies are performed by taking four millimetre punches from both ears, which then undergo Evan's Blue extraction using formamide incubation in 96 well plates. Eighty μL of eluents are transferred to flat-bottom 96-well plates and absorbance read using SpectraMax M5 spectrophotometer (Molecular Devices, Sunnyvale, Calif., USA) at 620 nm. Background readings from all samples are taken at 740 nm and subtracted from the 620 nm readings. Data are reported as OD.

On to `Cc1cc(O)cc(C[C@H]2[C@@H](C(=O)O)CC[C@H]3C(C)(C)CCC[C@]23C)c1` [Compound No. 20, (1S,2S,4aS,8aR)-1-[(3-hydroxy-5-methylphenyl)methyl]-5,5,8a-trimethyl-decahydronaphthalene-2-carboxylic acid], for which the “Jurkat (SHIP1 −), Akt phosphorylation” value in experiment [1] is recorded as “−”. Moreover, the “Scoring, Approach 2 (Initial velocity Ratio)” value at His-hSHIP1 enzyme [2] is recorded as “+++”. Besides, the “Molt-4 (SHIP +), Akt phosphorylation” value in experiment [3] is on record as “−”.

Take `Cc1cc(O)cc(C(=O)[C@H]2C(C)C(N)C[C@H]3C(C)(C)CCC[C@]23C)c1.Cl` (stereo partly drawn) [Compound No. 22, 3-{[(1S,4aS,8aS)-3-amino-2,5,5,8a-tetramethyl-decahydronaphthalen-1-yl]carbonyl}-5-methylphenol hydrochloride]: on His-hSHIP1 enzyme [4], the “Scoring, Approach 1 (% increase relative to background)” value is “+ (0 < x < 50)”. In experiment [1], the “Jurkat (SHIP1 −), Akt phosphorylation” value is on record as “−”. Further, the “Molt-4 (SHIP +), Akt phosphorylation” value in experiment [3] is “+”.

Consider `CC1(C)CCC[C@]2(C)[C@@H](COc3cc(O)cc(O)c3)[C@](C)(O)CC[C@@H]12` [Compound No. 38, 5-{[(1S,2R,4aS,8aS)-2-hydroxy-2,5,5,8a-tetramethyl-decahydronaphthalen-1-yl]methoxy}benzene-1,3-diol], for which the “% Inhibition of allergen-induced passive cutaneous anaphylaxis” value in experiment [5] is “+++ (>50% inhibition)”. Besides, the “Scoring, Approach 1 (% increase relative to background)” value on His-hSHIP1 enzyme [4] is “+ (0 < x < 50)”.

Turning to `Cc1cc(O)cc(C(=O)[C@H]2[C@H](C)C(C(=O)O)C[C@H]3C(C)(C)CCC[C@]23C)c1` (stereo partly drawn) [Compound No. 68, (3S,4S,4aS,8aS)-4-[(3-hydroxy-5-methylphenyl)carbonyl]-3,4a,8,8-tetramethyl-decahydronaphthalene-2-carboxylic acid], the “Jurkat (SHIP1 −), Akt phosphorylation” value in experiment [1] is “−”. For the same compound, on His-hSHIP1 enzyme [2], the “Scoring, Approach 2 (Initial velocity Ratio)” value is “+++”. Moreover, the “Molt-4 (SHIP +), Akt phosphorylation” value in experiment [3] is listed as “−”.

Consider `Cc1cc(O)cc(C(=O)[C@H]2[C@H](C)[C@H](NS(C)(=O)=O)C[C@H]3C(C)(C)CCC[C@]23C)c1` [Compound No. 176, N-[(2R,3S,4S,4aS,8aS)-4-[(3-hydroxy-5-methylphenyl)carbonyl]-3,4a,8,8-tetramethyl-decahydronaphthalen-2-yl]methanesulfonamide], for which the “Scoring, Approach 2 (Initial velocity Ratio)” value on His-hSHIP1 enzyme [2] is reported as “++”.

For `C[C@@H]1[C@H](NC(=N)N)C[C@H]2C(C)(C)CCC[C@]2(C)[C@H]1C(=O)c1cc(O)cc(O)c1` [Compound No. 178, 1-[(2R,3S,4S,4aS,8aS)-4-[(3,5-dihydroxyphenyl)carbonyl]-3,4a,8,8-tetramethyl-decahydronaphthalen-2-yl]guanidine], on His-hSHIP1 enzyme [2], the “Scoring, Approach 2 (Initial velocity Ratio)” value is “+++”.

As for `C[C@@H]1[C@H](NS(C)(=O)=O)C[C@H]2C(C)(C)CCC[C@]2(C)[C@H]1C(=O)c1cc(O)cc(O)c1` [Compound No. 179, N-[(2R,3S,4S,4aS,8aS)-4-[(3,5-dihydroxyphenyl)carbonyl]-3,4a,8,8-tetramethyl-decahydronaphthalen-2-yl]methanesulfonamide], the “Scoring, Approach 2 (Initial velocity Ratio)” value on His-hSHIP1 enzyme [2] was “+”.

Regarding `C[C@@H]1[C@H](NC(=O)CNS(=O)(=O)c2ccccc2C(=O)O)C[C@H]2C(C)(C)CCC[C@]2(C)[C@H]1C(=O)c1cc(O)cc(O)c1` [Compound No. 181, 2-[({[(2R,3S,4S,4aS,8aS)-4-[(3,5-dihydroxyphenyl)carbonyl]-3,4a,8,8-tetramethyl-decahydronaphthalen-2-yl]carbamoyl}methyl)sulfamoyl]benzoic acid], the “Scoring, Approach 2 (Initial velocity Ratio)” value on His-hSHIP1 enzyme [2] is on record as “+++”.
